Test results from paper PMC10269165 (Antimicrobial Agents and Chemotherapy, 2023).
Where two headings read alike, the source gives them in different places.

Assays:
[1] = tested on: HCT-8 cells; assay: WST-1 cytotoxicity assay in HCT-8 cells; type: cell-based, human; conditions: 24 h, read-out: Mean IC50 ± SEM, Cytotoxicity
Experimental: Compounds were tested for cytotoxicity in human ileocecal colorectal adenocarcinoma cells (HCT-8) (ATCC CCL-244; RRID:CVCL_2478) by using the cell proliferation reagent WST-1 (Roche) according to the manufacturer’s protocol. The WST-1 assay is a quantitative colorimetric assay for measurement of metabolically active cells. This assay is based on the reduction of the tetrazolium salt (WST-1) by viable cells. About 5 × 10^4 HCT-8 cells were seeded per well in 96-well plates and grown overnight in 200 μL of RPMI 1640 medium (without phenol red; Gibco) supplemented with 2.5 g/L of glucose, 1 mM sodium pyruvate, 1.5 g/L of sodium bicarbonate, 10% heat-inactivated FBS (Gibco), and 1× antibiotic-antimycotic (Gibco) at 37°C with 5% CO2 in a humidified incubator. Upon reaching 80 to 90% confluence, cells were treated with various concentrations of the test compounds for 24 h. Control wells received equivalent volumes of DMSO used in the reconstituted compounds. After 24 h of culture, 10 μL of the WST-1 reagent was added to each well, and the plates were incubated in the dark for 1 h at 37°C with 5% CO2. The plates were well agitated, and 150 μL of the medium from each well was transferred to a new clear flat-bottomed black 96-well plate (Corning). The absorbance was read at a test wavelength of 440 nm and a reference wavelength of 690 nm using a multimode microplate reader (Spectra Max iD3; Molecular Devices, USA). All of the reactions were prepared in triplicate. The dose-response curves were generated by nonlinear regression analysis with GraphPad PRISM software using control-normalized data to determine the half-maximal cytotoxicity (IC50) concentrations.

[2] = tested on: OdPMT-complemented pem1Δ/pem2Δ S. cerevisiae; assay: Growth inhibition of complemented yeast; type: cell-based, Saccharomyces cerevisiae; conditions: read-out: Mean growth inhibition EC50 ± SEM on complemented yeast, OdPMT
Experimental: (§1) To determine the effect of PMT inhibitors on the growth of PMT- and LacZ-complemented pem1Δpem2Δ S. cerevisiae, the yeast cells were first starved of choline as described above, and the cells were diluted to an OD600 of ~0.6. The PMT-complemented yeast cells were cultured in SG medium (3.4g/L yeast nitrogen base without amino acids, 2% galactose, 30 mg/L histidine, 100 mg/L leucine, 100 mg/L adenine, and 50 mg/L tryptophan) supplemented with 1 mM ethanolamine hydrochloride, while the LacZ-complemented yeast cells were cultured in SG medium supplemented with 1 mM choline chloride. Compounds that depicted cross-inhibitory activity against PMT proteins in vitro were added at various concentrations to the cultures. As a negative control, DMSO (at a final concentration not exceeding 2% [vol/vol]) was added to yeast cultures designated control cultures. The cultures were incubated at 30°C with shaking at 275 rpm for 4 days. On a daily basis during the course of culture, 200-μL portions of culture aliquots were taken, and their OD600s were measured using a microplate reader. In preliminary work, we had observed that the growth of PMT- and LacZ-complemented pem1Δpem2Δ S. cerevisiae plateaued at 3 to 4 days of culture. Therefore, to determine the inhibitory effect of nematode PMT inhibitors on the growth of PMT- and LacZ-complemented pem1Δpem2Δ S. cerevisiae, measurements taken on day 3 were used. The results were presented as percentage of growth rate using the following formula: PGR = growth rate (plus inhibitor)/growth rate (minus inhibitor) × 100 where the percent growth rate (PGR) is the growth rate of inhibitor-treated PMT- or LacZ- complemented Pem1Δpem2Δ S. cerevisiae, considering the growth rate of untreated PMT- or LacZ- complemented Pem1Δpem2Δ S. cerevisiae is 100%; the growth rate = ΔA600^Day 3/ΔA600^Day 0; ΔA600^Day 0 is the absolute value of A600 of PMT- or LacZ- complemented pem1Δ/pem2Δ S. cerevisiae at day 0, which equals the A600 of the culture minus the A600 of the growth medium only; ΔA600^Day 3 is the absolute value of the A600 of PMT- or LacZ complemented pem1Δ/pem2Δ S. cerevisiae at day 3, which equals the A600 of the culture at day 3 minus the A600 of growth medium only; the growth rate (plus inhibitor) is the growth rate of PMT- or -LacZ complemented pem1Δpem2Δ S. cerevisiae in the presence of test compound; and the growth rate (minus inhibitor) is the growth rate of the PMT- or LacZ complemented pem1Δ/pem2Δ S. cerevisiae in the absence of test compound, but with a volume of DMSO equal to that of compound added in the treated culture. The dose-response curves were generated with GraphPad Prism software and IC50 concentrations of the compounds in PMT- and LacZ-complemented yeast cells derived.

[3] = tested on: LacZ-complemented pem1Δ/pem2Δ S. cerevisiae; assay: Growth inhibition of complemented yeast; type: cell-based, Saccharomyces cerevisiae; conditions: for effect on LacZ-expressing mutant yeast: medium with choline; for EC50: Saccharomyces cerevisiae, 72 h, read-out: Mean growth inhibition EC50 ± SEM on complemented yeast, LacZ
Experimental: as §1

[4] = tested on: H. contortus, susceptible (TxPh-2011-S) and MDR (UGA MDR 2020) isolates; assay: Larval development assay (LDA); type: cell-based, Haemonchus contortus; conditions: for Hill slope: LDA dose-response curve; for anthelmintic activity in LDA: drug-susceptible and MDR isolates
[5] = tested on: MDR isolate of H. contortus, exsheathed L3 larvae; assay: Larval motility assay (LMA), Worminator; type: cell-based, Haemonchus contortus
[6] = medium with ethanolamine, no choline, day 3

| SMILES | IC50 [1] [µM] | EC50 [2, 6] [µM] | effect on LacZ-expressing mutant yeast [3] | EC50 ([2]; Saccharomyces cerevisiae, 72 h) [µM] | EC50 [3] [µM] | IC50 ([4]; Haemonchus contortus, read-out: Anthelmintic IC50 by LDA (95% confidence interval)) [µM] | fold higher potency than NSC133100 ([4]; LDA IC50) | fold higher potency than NSC145612 ([4]; LDA IC50) | fold higher potency than NSC177383 ([4]; LDA IC50) [fold] | Hill slope [4] | anthelmintic activity in LDA [4] | Percent inhibition of larval motility ([5]; 62.5 µM, 1 hour) [%] | Percent inhibition of larval motility ([5]; 62.5 µM, 72 hours) [%] | Percent inhibition of larval motility ([5]; 62.5 µM, 96 hours) [%] | Percent inhibition of larval motility ([5]; 62.5 µM, Initial) [%] | Percent inhibition of larval motility ([5]; 250 µM, 4 hours) [%] | Percent inhibition of larval motility ([5]; 250 µM, 72 hours) [%] |
| --- | --- | --- | --- | --- | --- | --- | --- | --- | --- | --- | --- | --- | --- | --- | --- | --- | --- |
| COc1ccc(-c2c(C)c(C(=O)O)nc(-c3ccc4c(O)c(OC)c5c(c4n3)=NC(C)(C)N=5)c2N)c(O)c1OC [NSC62709] | 299 ± 6.27 | 19.5 ± 2.56 | no or negligible inhibitory effect |  |  |  |  |  |  |  |  |  |  |  |  |  |  |
| COc1cc(C)c2c(c1C=O)Oc1c(c(C)c(O)c3c1C(O)OC3=O)OC2=O (stereo not shown) [NSC87511] | 172 ± 8.68 | 57.9 ± 5.18 | no or negligible inhibitory effect |  |  |  |  |  |  |  |  |  |  |  |  |  |  |
| CO[C@@]12[C@H](COC(N)=O)C3=C(C(=O)C(C)=C(N)C3=O)N1C[C@H]1[C@@H]2N1C (stereo partly shown) [NSC56410] |  |  | no or negligible inhibitory effect | 37.6 ± 4.87 | 50.4 ± 13.2 | 0.8 | ~ 5 fold | ~39 fold | ~6 | 0.45 | activity in the lower micromolar range |  |  |  |  |  |  |
| O=c1c(O)cccc2cc(O)c(O)c(O)c12 [NSC35676, purpurogallin] |  |  | no or negligible inhibitory effect | 3.98 ± 1.08 | 6.02 ± 0.25 |  |  |  |  |  |  |  |  |  |  |  |  |
| CO[C@@H]1/C=C\O[C@]2(C)Oc3c(C)c(O)c4c(O)c(c(CN(C)C)c(O)c4c3C2=O)NC(=O)/C(C)=C\C=C[C@@H](C)[C@@H](O)[C@H](C)[C@@H](O)[C@H](C)[C@H](OC(C)=O)[C@@H]1C [NSC145612] | 302 ± 9.33 | 32.8 ± 2.64 | no or negligible inhibitory effect |  |  |  |  |  |  | 0.79 | activity in the lower micromolar range | 16.7 | 18.3 | 3.8 | 10.1 | 47.0 | 9.2 |
| CO[C@H]1/C=C/O[C@@]2(C)Oc3c(C)c(O)c4c(O)c(cc(O)c4c3C2=O)NC(=O)/C(C)=C\C=C\[C@H](C)[C@H](O)[C@@H](C)[C@@H](O)[C@@H](C)[C@H](OC(C)=O)[C@@H]1C [NSC133100] | 102 ± 16.6 | 36.6 ± 8.4 | no or negligible inhibitory effect |  |  |  |  | ~ 7 fold |  | 0.60 | activity in the lower micromolar range | 13.5 | -9.5 | -1.6 | -25.7 | -5.6 | -1.2 |
| CO[C@@H]1/C=C/O[C@@]2(C)Oc3c(C)c(O)c4c(c3C2=O)C(=N[C@@H]2CC[C@@H](O)O[C@H]2C)C=C(NC(=O)/C(C)=C\C(=O)[C@@H]2C[C@@H]2[C@H](O)[C@@H](C)[C@@H](O)[C@@H](C)[C@H](OC(C)=O)[C@@H]1C)C4=O [NSC177383] | 85.5 ± 2.77 | 19.8 ± 3.9 |  |  |  |  |  | ~ 7 fold |  | 1.23 | activity in the lower micromolar range | 3.9 | 19.1 | 14.7 | 16.5 | -42.2 | 46.1 |
